From patent US20240390337A1, “RELA/RSH INHIBITORS FOR THE TREATMENT OR PREVENTION OF MEDICAL BIOFILMS” (DREXEL UNIVERSITY, priority 2021, published 2024)

Columns and labels:
E. coli C biofilm [1] = test: Biofilm persistence assay with ampicillin (crystal violet); type: cell-based
Protocol: Biofilm persistence and viability were assessed with the hit compounds in combination with an antibiotic. It has been determined that sub-MICs (minimum inhibitory concentration) of antibiotic result in increased biofilm formation. Ampicillin was used in all of the assays due to its bactericidal effect. Sub-MIC concentrations of ampicillin were determined by growth measurements (OD600). […] Biofilm Persistence Assays with Ampicillin: Biofilms were grown for 24 or 48 h as described elsewhere herein. Planktonic cells were removed, and the biofilms were washed twice with 250 μL sterile PBS solution. Two hundred microliters of fresh LB medium with various concentrations of ampicillin were dispensed into the wells. After 18 h of incubation at 37° C., the volume of biofilm was measured by CV staining as described elsewhere herein.

RelA enzyme [2] = biological target: T1, RelA enzyme (Escherichia coli, UniProt P0AG20); test: Semi-HTS and IC50, in vitro RelA ppGpp production assay ([α-32P]GTP); type: biochemical, E. coli; details: for IC50: concentration gradient, in vitro radio isotope assay
T1 sequence (P0AG20 whole entry): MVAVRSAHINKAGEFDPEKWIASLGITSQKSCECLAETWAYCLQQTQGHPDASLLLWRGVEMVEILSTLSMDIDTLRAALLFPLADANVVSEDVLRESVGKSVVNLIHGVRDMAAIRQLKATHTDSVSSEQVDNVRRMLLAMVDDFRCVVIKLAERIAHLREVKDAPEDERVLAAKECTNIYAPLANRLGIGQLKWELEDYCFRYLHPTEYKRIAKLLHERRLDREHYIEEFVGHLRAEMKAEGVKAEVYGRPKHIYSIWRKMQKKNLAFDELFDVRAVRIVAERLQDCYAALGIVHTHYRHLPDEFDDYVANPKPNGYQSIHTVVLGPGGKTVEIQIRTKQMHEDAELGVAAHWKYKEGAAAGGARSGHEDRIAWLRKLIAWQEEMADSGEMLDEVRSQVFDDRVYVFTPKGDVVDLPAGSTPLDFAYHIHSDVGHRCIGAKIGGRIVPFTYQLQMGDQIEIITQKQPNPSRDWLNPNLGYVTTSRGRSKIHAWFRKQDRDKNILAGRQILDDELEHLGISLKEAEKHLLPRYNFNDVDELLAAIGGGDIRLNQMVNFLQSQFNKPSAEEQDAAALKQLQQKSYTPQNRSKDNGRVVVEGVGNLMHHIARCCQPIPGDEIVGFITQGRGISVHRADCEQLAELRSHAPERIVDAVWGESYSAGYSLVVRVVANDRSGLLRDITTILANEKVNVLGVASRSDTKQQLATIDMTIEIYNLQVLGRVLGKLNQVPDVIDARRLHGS
Protocol: The next step of the semi-HTS was to run the 40 in silico determined compounds in an in vitro RelA assay at a relatively high concentration of 200 μM, to test if there is any effect on RelA ppGpp production using the α-32P-GTP radio isotope in vitro assay. […] From this assay, two compounds were picked to go into later assays (C14 [4.2%], C22 [13.4%]).
The follow-up assay to the semi-HTS is determination of in vitro half-maximal inhibitory concentration (IC50). In vitro IC50 is completed by a concentration gradient run on the in vitro radio isotope assay (FIG. 29B). […] C14 was originally purchased from Enamine®; however, it was later synthesized in-house as more was needed than could be purchased.
RelA enzyme was purified as described in Example 2.

Pseudomonas aeruginosa = test: Toxin production by P. aeruginosa (Example 4, FIG. 42); type: cell-based; details: read-out: EC50 of inhibition of toxin production
P. aeruginosa PA01 = test: Biofilm formation in P. aeruginosa PA01; type: cell-based; details: results not shown
Protocol: (§1) Biofilm Inhibition Assays: For biofilm formation on polystyrene surfaces, flat-bottom 96-well microtiter plates (Corning Inc.) were used. […] The biofilm mass was measured by the CV staining assay described elsewhere herein.

P. aeruginosa PA14 [3] = test: Biofilm formation in P. aeruginosa PA14; type: cell-based
Protocol: as §1

E. coli C [4] = test: E. coli C aggregation assay; details: high salt, low temperature, amino acid starvation
Protocol: E. coli C was grown in LB Miller broth at 30° C. with shaking (250 rpm) with or without compounds. E. coli C ΔrelA mutant was also grown as a control. One milliliter of the culture was transferred to standard polypropylene spectrophotometer cuvettes to measure planktonic cells densities (OD600). Remaining cultures were vortexed ˜1 min and 1 mL was aliquoted into cuvettes to measure the total cell densities (OD600). Aggregation was calculated as a ratio of planktonic to total cell density.

E. coli C biofilm [5] = test: Biofilm inhibition assay (crystal violet); type: cell-based; details: results not shown
Protocol: Studies were conducted in 96-well high-throughput assays. In the biofilm inhibition assay, compounds were added to the wells at the beginning of the experiment. For the biofilm dispersal assay, the biofilm was allowed to grow for 24 and 48 h, the wells were washed with sterile phosphate-buffered saline (PBS), and fresh medium supplemented with the compounds was added to the wells. The amount of biofilm was measured after 24 h.
as §1

P. aeruginosa PA14 [6] = system: P. aeruginosa PA14
Protocol: P. aeruginosa PA14 was grown overnight in LB Miller broth at 37° C. with shaking (250 rpm). […] This was then grown for 18 h at 37° C. Cells were pelleted by centrifugation. One milliliter of supernatant was collected, and 1 mL of chloroform was added to the supernatant. Layers were separated and OD690 was taken for chloroform layer (blue). OD690 was normalized to culture cell density OD600.

[7] = system: (p)ppGpp production in E. coli C; test: In vivo (p)ppGpp quantification in E. coli C (32P orthophosphate, serine hydroxamate, TLC); type: cell-based; details: 20 μM compound
Protocol: In vivo (p)ppGpp Quantification: In vivo (p)ppGpp quantification was carried out. One milliliter of overnight cell culture of E. coli C was placed in 1.5-mL microcentrifuge tubes and pelleted. To this pellet was added 50 μL of a reaction mixture containing 20 μCi orthophosphoric acid and 40 μM serine hydroxamate in 1×MOPS minimal medium. The cell pellet was resuspended by gentle vortexing and placed in an incubator for 1 h. Cell growth arrest and cell lysis were completed by addition of 15 μL formic acid (88%). The lysate was then centrifuged to remove any insoluble components and the supernatant was spotted on a stationary-phase PEI-cellulose TLC plate. Plates were processed and analyzed as described elsewhere herein.

E. coli C biofilm [8] = test: AlamarBlue viability assay of biofilm cells, compounds plus ampicillin; type: cell-based
Protocol: Synergistic Effects of Compounds and Antibiotics: Biofilms were grown for 24, 48, or 72 h as described elsewhere herein. Planktonic cells were then removed, and biofilms were washed twice with 250 μL sterile PBS solution. Two hundred microliter aliquots of fresh LB medium with multiple concentrations of the tested compounds and ampicillin were dispensed into the wells. After 18 h of incubation at 37° C., the biofilm mass was measured as described elsewhere herein. For the AlamarBlue viability test, 4 μL of AlamarBlue (Invitrogen) was added and plates were incubated in a Biotek HT plate reader at 37° C. for 4 h. Cell viability was measured as fluorescence at 530/590 nm (excitation/emission) versus compound concentration or initial cell density.

RelA enzyme [9] = biological target: T1, RelA enzyme; test: In vitro (p)ppGpp quantification (RelA ppGpp production assay, [γ-32P]ATP, TLC); details: 20 μM compound
Protocol: The direct (p)ppGpp detection in vivo and in vitro assays relied on different 32P radioactive nucleotides (γ-32P-ATP, α-32P-GTP) for use as substrates, and thin-layer chromatography (TLC) to separate the reaction products (stationary phase: polyethylenimine cellulose).
Both methods required TLC with a stationary phase of a polyethyleneimine (PEI)-cellulose plate and a mobile phase of 1 M potassium phosphate monobasic.
In vitro (p)ppGpp quantification: in vitro (p)ppGpp quantification was carried out. […] Roughly 0.4 μg of RelA protein was added to a 1.5-mL microcentrifuge tube containing a reaction mix composed of 1×PBS, 5 mM MgCl2, 0.5 mM ATP, 0.5 mM GTP, 0.5 mM GDP, and 20 μCi[γ-32P]ATP (3,000 Ci mmol-1; PerkinElmer) and varying concentrations of the compound of interest. These reactions were incubated at 37° C. for 1 h. The reactions were stopped by addition of 5 μL formic acid (88%). The reaction mixtures were then spotted on a stationary-phase polyethyleneimine (PEI)-cellulose TLC plate using potassium phosphate monobasic (1.5 M) as the mobile-phase. The plates were then dried, and the radiation levels were read using a Molecular Dynamics Storage Phosphor Screen. A Molecular Dynamics Storm 840 Phosphor imager Scanner was used to read the phosphor screen and ImageJ was used to process the images.

E. coli C biofilm [10] = test: Synergistic effects of compounds and ampicillin on biofilm biomass (crystal violet); type: cell-based; details: versus antibiotic-only control; for reduction of biofilm biomass at Amp40: ampicillin 40 μg·mL−1, S3-G1A and S3-G1B 50 μM, IDR1018 5 μM; for reduction in biofilm biomass at Amp50: ampicillin 50 μg·mL−1
Protocol: Biofilm Dispersal Assays: For biofilm formation on polystyrene surfaces, flat-bottom 96-well microtiter plates (Corning Inc.) were used. […] These were allowed to grow for 24 h. The planktonic cells and medium were then aspirated, and the plates were washed twice with 1×PBS. Fresh LB with hit compounds were added to the biofilm wells. These cultures were then allowed to incubate at 37° C. overnight. Cell density were measured (OD600) using a Multiscan Go plate reader (ThermoFisher), and 30 μL Gram crystal violet (CV) (Remel; 3 g crystal violet, 50 mL isopropanol, 50 mL ethanol, 900 mL purified water) was applied for staining for 1 h. Plates were washed with water and air dried, and CV was solubilized with an ethanol:acetone (4:1) solution. The OD570 was determined from this solution, and the biofilm volume was calculated as the ratio of OD570 to OD600. Synergistic Effects of Compounds and Antibiotics: Biofilms were grown for 24, 48, or 72 h as described elsewhere herein. Planktonic cells were then removed, and biofilms were washed twice with 250 μL sterile PBS solution. Two hundred microliter aliquots of fresh LB medium with multiple concentrations of the tested compounds and ampicillin were dispensed into the wells. After 18 h of incubation at 37° C., the biofilm mass was measured as described elsewhere herein. For the AlamarBlue viability test, 4 μL of AlamarBlue (Invitrogen) was added and plates were incubated in a Biotek HT plate reader at 37° C. for 4 h. Cell viability was measured as fluorescence at 530/590 nm (excitation/emission) versus compound concentration or initial cell density.

E. coli C [11] = test: Cell growth curves (planktonic growth, OD600); details: 30 μg·mL−1
Protocol: Cell Growth Curves: The effect of the hit compounds on bacterial growth was tested by adding compounds at multiple concentrations to the bacterial culture (100× diluted overnight culture; approximately 10^7 cells) in fresh LB medium. Two hundred microliters aliquots were pipetted into 96-well plates and placed into a Biotek HT or Tecan Infinite M200 Pro plate reader for 18 h at 37° C. Plates were shaken during incubation and the optical density (OD630 or OD600) was measured every 15 min.
The effect of the hit compounds on bacterial growth was tested by adding compounds at 200 μM (with DMSO control) to the bacterial culture (100× diluted overnight culture; approximately 10^7 cells) in fresh LB medium. Two hundred microliter aliquots were pipetted into 96-well plates, which were placed into a Biotek HT or Tecan Infinite M200 Pro plate reader for 18 h at 37° C. Plates were shaken during incubation and the optical density (OD630 or OD600) was measured every 15 min.

## CC1(C)S[C@@H]2[C@H](NC(=O)[C@H](N)c3ccccc3)C(=O)N2[C@H]1C(=O)O [Ampicillin]
E. coli C biofilm [1]
  ampicillin concentration with the highest biofilm biomass: 80 µg/mL
  effect on amount of biofilm: significantly increased the amount of biofilm

## O=C(O)Cn1cc(C[C@H]2NC(=O)NC2=O)nn1 [Compound C14]
RelA enzyme [2]
  IC50: 54 µM
Pseudomonas aeruginosa
  EC50: 0.0395 µM

## O=C(O)CCNC(=O)c1cccc(-n2cc(Br)cn2)c1 [Compound C22, 3-(3-(4-bromo-1H-pyrazol-1-yl)benzamido)propanoic acid]
P. aeruginosa PA01
  effect on biofilm formation: little effect
P. aeruginosa PA14 [3]
  biofilm formation compared to the DMSO control: reduced biofilm formation but not significantly
E. coli C [4]
  E. coli C aggregation: slightly absent
RelA enzyme [2]; 200 μM compound
  ppGpp production relative to the untreated control (set at 100%): 13.4%
RelA enzyme [2]
  IC50: 93 µM
E. coli C biofilm [5]
  effect on biofilm formation: little effect
P. aeruginosa PA14 [6]
  effect on pyocyanin production: produced an effect, it never reached the level of C14

## O=C(N[C@H](C(=O)O)c1ccc(Cl)cc1)c1cc(-c2ccc(O)cc2)n[nH]1 [Compound S3-G1A, (S)-2-(4-chrlorphenyl)-2-(3-(4-hydroxyphenyl)-1H-pyrazole-5carboxamido) acetic acid]
[7]
  reduction in ppGpp production, in vivo assay: 31.4%
E. coli C biofilm [8]; ampicillin 30 μg·mL−1, compound 50 μM
  reduction of cell viability (AlamarBlue) at Amp30: 55.4%
E. coli C biofilm [8]; higher concentrations of ampicillin (not specified)
  decrease of cell viability (AlamarBlue) at higher concentrations of antibiotic: 29.2%
RelA enzyme [9]
  reduction of ppGpp production compared to untreated sample, in vitro assay: 71.7%
E. coli C biofilm [10]
  reduction of biofilm biomass at Amp40: 97.9%
  reduction in biofilm biomass at Amp50: 67.9%
E. coli C [11]
  effect on planktonic growth rate / bacterial growth: no effect
P. aeruginosa PA14 [6]
  effect on pyocyanin production: small effect

## CC(C)C(=O)Nc1nc2c(ncn2[C@H]2C[C@H](OC(=O)NCC(=O)NCC(=O)O)[C@@H](COC(=O)NCC(=O)NCC(=O)O)O2)c(=O)[nH]1 [Relacin, reference compound]
[7]
  reduction in ppGpp production, in vivo assay: no effect
RelA enzyme [9]
  reduction of ppGpp production compared to untreated sample, in vitro assay: 45.4%

## IDR1018 [reference compound]
E. coli C biofilm [10]
  reduction of biofilm biomass at Amp40: 75.4%
  reduction in biofilm biomass at Amp50: 65.2%
